In patent US9243019B2 (priority 2013, dated 2016):
Read-outs that look alike come from different tables or passages of the source.

Type: physicochemical
[1] = Table 3, accelerated for 0 month, hydroxysafflor yellow A per CN102675379A purity 89.9%, sodium salt purity 98.6%
[2] = Table 3, accelerated for 1 month, hydroxysafflor yellow A per CN102675379A purity 89.9%, sodium salt purity 98.6%
[3] = Table 3, accelerated for 2 months, hydroxysafflor yellow A per CN102675379A purity 89.9%, sodium salt purity 98.6%
[4] = Table 3, accelerated for 3 months, hydroxysafflor yellow A per CN102675379A purity 89.9%, sodium salt purity 98.6%
[5] = Table 4, accelerated for 0 month, hydroxysafflor yellow A by acidizing purity 99.2%, sodium salt purity 99.2%
[6] = Table 4, accelerated for 2 months, hydroxysafflor yellow A by acidizing purity 99.2%, sodium salt purity 99.2%
[7] = Table 4, accelerated for 3 months, hydroxysafflor yellow A by acidizing purity 99.2%, sodium salt purity 99.2%

Content (counting Hydroxyl A) [1]: 89.8% | Total impurity [1]: 10.1% | Content (counting Hydroxyl A) [2]: 84.7% | Total impurity [2]: 14.9% | Content (counting Hydroxyl A) [3]: 79.2% | Total impurity [3]: 20.8% | Content (counting Hydroxyl A) [4]: 71.2% | Total impurity [4]: 28.6% | Content (counting Hydroxyl A) [5]: 99.1% | Total impurity [5]: 0.8% | Total impurity (Table 4, accelerated for 1 month, hydroxysafflor yellow A by acidizing purity 99.2%, sodium salt purity 99.2%): 5.9% | Content (counting Hydroxyl A) [6]: 89.2% | Total impurity [6]: 10.7% | Content (counting Hydroxyl A) [7]: 81.3% | Total impurity [7]: 18.6%
Compound: O=C(/C=C/c1ccc(O)cc1)C1=C(O)C(O)(C2OC(CO)C(O)C(O)C2O)C(O)=C(C2OC(CO)C(O)C(O)C2O)C1=O (stereo not drawn) [Hydroxysafflor yellow A, hydroxysafflor yellow A]
